Reference: patent publication US10363239B2, “Method for inhibiting growth of cancer cells” (Pain Therapeutics, Inc., priority 2013, dated 2019)
Read-outs that look alike come from different tables or passages of the source.

Experiments:
[1] = target: FLNA pentapeptide of SEQ ID NO: 1 (Bn-VAKGL) (Homo sapiens, UniProt P21333); assay: FITC-NLX-based FLNA screening assay (inhibition of FITC-naloxone binding to Bn-VAKGL on streptavidin plates); settings: 10 nM FITC-NLX
[2] = tested on: mu opiate receptor (MOR); assay: MOR agonist activity using [35S]GTPγS binding assay in striatal membranes; type: biochemical; settings: for MOR agonist activity ([35S]GTPγS binding), FLNA-Binding Compound as Agonist 1 μM + BFNA: 1 μM compound + 1 μM β-funaltrexamine
Procedure, shortened: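 Striatal membranes (200 μg) were preincubated 5 min at 30 °C in HEPES pH 7.5 with 100 mM NaCl, 1 mM MgCl2 and 0.5 nM [35S]GTPγS, then 5 min more with 0.1–10 μM compound. Gαo was immunoprecipitated and bound radioactivity counted by scintillation.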

[3] = read-out: Percent Binding Inhibition, FLNA-binding compound 0.01 μM
[4] = read-out: Percent Binding Inhibition, FLNA-binding compound 0.1 μM
[5] = read-out: Percent Binding Inhibition, FLNA-binding compound 1 μM
[6] = Series C-1, 0.1 μM compound, relative to DAMGO
[7] = Series C-1, 0.1 μM compound, [35S]GTPγS binding to Gαo, striatal membranes
[8] = Series C-1, 1 μM compound + 1 μM β-FNA
[9] = Series C-1, 1 μM compound + β-FNA, relative to DAMGO + BFNA
[10] = Series C-1, 1 μM compound, relative to DAMGO
[11] = Series C-1, 1 μM compound, [35S]GTPγS binding to Gαo, striatal membranes
[12] = FLNA-binding compound 0.01 μM, read-out: Percent Binding Inhibition
[13] = FLNA-binding compound 0.1 μM, read-out: Percent Binding Inhibition
[14] = FLNA-binding compound 1 μM, read-out: Percent Binding Inhibition
[15] = 0.1 μM compound relative to DAMGO
[16] = 1 μM compound + BFNA relative to DAMGO + BFNA
[17] = 1 μM compound relative to DAMGO
[18] = Series C-2, 0.1 μM compound, relative to DAMGO
[19] = Series C-2, 0.1 μM compound, [35S]GTPγS binding to Gαo, striatal membranes
[20] = Series C-2, 1 μM compound + 1 μM β-FNA
[21] = Series C-2, 1 μM compound + β-FNA, relative to DAMGO + BFNA
[22] = Series C-2, 1 μM compound, relative to DAMGO
[23] = Series C-2, 1 μM compound, [35S]GTPγS binding to Gαo, striatal membranes

Compound | inhibition at 0.01 µM [1, 12] [%] | inhibition at 0.1 µM [1, 13] [%] | inhibition at 1 µM [1, 14] [%] | MOR agonist activity ([35S]GTPγS binding), FLNA-Binding Compound as Agonist 0.1 μM ([2]; 0.1 μM compound) [%] | % DAMGO (0.1 μM) [2, 15] [%] | MOR agonist activity ([35S]GTPγS binding), FLNA-Binding Compound as Agonist 1 μM ([2]; 1 μM compound) [%] | MOR agonist activity ([35S]GTPγS binding), FLNA-Binding Compound as Agonist 1 μM + BFNA [2] [%] | % DAMGO + BFNA [2, 16] [%] | % DAMGO (1 μM) [2, 17] [%] | % DAMGO (0.1 μM) [2, 18] [%] | MOR agonist activity, percent [35S]GTPγS binding at the stated compound concentration [2, 19] [%] | MOR agonist activity, percent [35S]GTPγS binding at the stated compound concentration [2, 20] [%] | % DAMGO + BFNA [2, 21] [%] | % DAMGO (1 μM) [2, 22] [%] | MOR agonist activity, percent [35S]GTPγS binding at the stated compound concentration [2, 23] [%] | also measured
O=S(=O)(c1ccc(Br)c(C(F)(F)F)c1)N1CCC2(CC1)OCCN2S(=O)(=O)c1ccc(Br)c(C(F)(F)F)c1 [Compound C0077] |  |  |  |  |  |  |  |  |  |  |  |  |  |  |  | inhibition at 0.01 µM [1, 3]: 45.7%; inhibition at 0.1 µM [1, 4]: 47.7%; inhibition at 1 µM [1, 5]: 51%; % DAMGO (0.1 μM) [2, 6]: 109.5%; Concentration of FLNA-Binding Compound as Agonist 0.1 μM [2, 7]: 192.7%; Concentration of FLNA-Binding Compound as Agonist 1 μM + BFNA [2, 8]: 136.7%; % DAMGO + BFNA [2, 9]: 621.4%; % DAMGO (1 μM) [2, 10]: 104.9%; Concentration of FLNA-Binding Compound as Agonist 1 μM [2, 11]: 265.4%
CC1CCC(C(C)C)C(OCC(O)CN2CCCCC2=O)C1 (stereo not drawn) [Compound A0036] | 45.6 | 50.1 | 54.4 | 144.1 | 73.4 | 167.5 | 63.2 | 85.5 | 60.7 |  |  |  |  |  |  | 
OC(COc1ccc(Br)c(F)c1)CN1CCc2ccccc2C1 (stereo not drawn) [Compound A0057] | 29.1 | 37 | 43.4 | 124.2 | 79.6 | 192.1 | 44.8 | 112.3 | 83.3 |  |  |  |  |  |  | 
CCN1CCC2(CC1)OCCN2S(=O)(=O)c1ccc(OC)cc1 [Compound C0089M] | 40.7 | 46.1 | 51.2 |  |  |  |  |  |  | 136.3 | 234.5 | 81.9 | 237.4 | 134.4 | 295.3 | 
CC1CCC(C(C)C)C(OCC(O)CN2CC(C)OC(C)C2)C1 (stereo not drawn) [Compound A3333] |  |  |  | 170.7 | 88.9 | 328.3 | 65.9 | 136.7 | 101.0 |  |  |  |  |  |  | Percent Binding Inhibition ([1]; FLNA-binding compound 0.01 μM): 40.4%; Percent Binding Inhibition ([1]; FLNA-binding compound 0.1 μM): 48.5%; Percent Binding Inhibition ([1]; FLNA-binding compound 1 μM): 54.2%
COc1ccc(S(=O)(=O)N2CCC3(CC2)NCCO3)cc1 [Compound C0026] | 42.3 | 44.8 | 49 |  |  |  |  |  |  | 107.7 | 207.2 | 21.2 | 48.3 | 105.6 | 288.4 | 
CC1CCC(C(C)C)C(OCC(O)CN2CCc3ccccc3C2)C1 (stereo not drawn) [Compound A0040] |  |  |  | 46.1 | 23.5 | 149.0 | 16.7 | 22.6 | 54.0 |  |  |  |  |  |  | inhibition at 0.01 µM [1, 3]: 45%; inhibition at 0.1 µM [1, 4]: 50.4%; inhibition at 1 µM [1, 5]: 56.3%
O=S(=O)(c1ccc(Br)cc1Br)N1CCC2(CC1)OCCN2S(=O)(=O)c1ccc(Br)cc1Br [Compound C0070] | 42.6 | 50.6 | 53.6 |  |  |  |  |  |  |  |  |  |  |  |  | % DAMGO (0.1 μM) [2, 6]: 96.2%; Concentration of FLNA-Binding Compound as Agonist 0.1 μM [2, 7]: 165.6%; Concentration of FLNA-Binding Compound as Agonist 1 μM + BFNA [2, 8]: 114.2%; % DAMGO + BFNA [2, 9]: 331.0%; % DAMGO (1 μM) [2, 10]: 95.9%; Concentration of FLNA-Binding Compound as Agonist 1 μM [2, 11]: 210.8%
C=CCN1CCC2(CC1)OCCN2S(=O)(=O)c1ccc(C(C)=O)cc1 [Compound C0096M] | 43 | 48.3 | 55 |  |  |  |  |  |  | 105.9 | 186.4 | 127.1 | 577.7 | 130.0 | 328.9 | 
